We go through six compounds from patent US20020032918A1, “Alteration of growth and adaptation under hypoxic conditions” (priority 2000, published 2002).

One assay deals with SH2A gene expression. The assay can be described thus: Northern blot analysis of SH2A transcript abundance in isolated deepwater rice stem segments treated with hormone or inhibitor solutions. Format: cell-based, Oryza sativa L. On the procedure:
Seeds of deepwater rice (Oryza sativa L., Pin Gaew 56) were obtained from the International Rice Research Institute (Los Baños, The Philippines). Plants were grown for 12 to 14 weeks as described (Sauter, 1997). All experiments were carried out under continuous light (200 μE/m^−2 s^−1) at 25° C. in a growth chamber. For submergence treatment, whole plants were placed in a 600 liter plastic barrel filled with tap water as described (Lorbiecke and Sauter, 1999). Control plants were kept in the same growth chamber. Analysis of hormone and inhibitor effects was performed using excised stem segments containing the upper highest growth responsive internode. (Raskin and Kende, 1984). Stem segments were incubated in 150 ml beakers with 25 ml aqueous solutions containing the indicated concentrations of gibberellin A3 (GA3) or the hormone precursor ethephon (2-chlorethanephosphoric acid, E) or water alone as a control. Control segments were incubated for 0.5 or 3 h in water. For ethephon treatment stem segments were preincubated for 0.5 h in water before adding ethephon for 2.5 h.
To guarantee high humidity, the beakers were placed in plastic cylinders. Ethylene action was inhibited using 2,5-norbornadiene (bicyclo[2.2.1]hepta-2,5-diene, NBD) at a concentration of 50 μl/l in the gas phase as described (Lorbiecke and Sauter, 1999).
To inhibit protein synthesis, stem sections were incubated with aqueous solutions of cycloheximide for 3 hours at the concentrations indicated.
To determine submergence-dependent gene expression, mRNA abundance of SH2A and SH2B was analysed by RNA gel blot hybridization. RNA was isolated from different zones of the youngest internode and from adventitious roots of the third node from airgrown or partially submerged deepwater rice plants. Thus, tissue sections of the highest internode, 0-5 mm above the second node and containing the intercalary meristem; 5-15 mm above the second node containing the elongation zone; and 15-30 mm above the second node and containing the differentiation zone were used (Lorbiecke and Sauter, 1997). Adventitious roots of the third node were isolated as described (Lorbiecke and Sauter, 1999). The tissues were immediately frozen in liquid nitrogen and stored at −70° C. until RNA extraction. Total RNA was isolated with the TRIzol reagent (Gibco BRL) and precipitated with 4 M LiCl as described (Puissant and Houdebine, 1990, Lorbiecke and Sauter, 1999). RNA separation and Northern blot hybridization were carried out as described previously (Lorbiecke and Sauter, 1998). For RNA blot analysis, 20 μg of total RNA was separated by electrophoresis on a 1% (w/v) agarose gel containing 6% formaldehyde. The RNA was blotted to a nylon membrane (Hybond N+; Amersham, Braunschweig, Germany) according to Lorbiecke and Sauter (1998). For hybridization, gene-specific cDNA-fragments covering the 3′-regions of SH2A (nt 496-867) and SH2B (nt 513-980) were random prime labelled with 32P using the ‘Rediprime Labelling Kit’ (Amersham, Braunschweig, Germany). Hybridization was carried out overnight at 68° C. in 1% SDS, 1 M NaCl, 10% (w/v) dextran sulfate and heat-denatured salmon sperm DNA. The blots were washed once in 1× SSC (0.15 M NaCl, 15 mM Na-citrate, pH 7.0) at 68° C. and once in 1× SSC, 1% (w:v) SDS at 68° C. for 10 min each (Sauter, 1997).
To analyse the hormone-dependent expression of the SH2A gene, isolated stem segments containing the youngest internode were treated with different hormone or inhibitor solutions for 2.5 hours. Total RNAs were isolated from the regions containing the intercalary meristem and the elongation zone and were analysed for SH2A transcript abundance (FIG. 8a).

Assay [1] concerns seedlings of a submergence intolerant cultivar. The settings on record: elongation response inhibited by spraying; cited from earlier work.
For assay [2], the system named is endogenous ABA and GA1 levels in internodes. The settings on record: cited from earlier work.

Where only a bound is given, the exact number is not on record here.

`O=P(O)(O)CCCl` [ethephon, 2-chloroethanephosphoric acid]: the “SH2A mRNA levels between 2 and 6 hours” value with SH2A gene expression (150 μM ethephon, meristem and elongation zone) is recorded as “declined to control levels”. For the same compound, the “time of maximal SH2A mRNA abundance” value in the assay with SH2A gene expression (150 μM ethephon, meristem and elongation zone, RNA at 1 hour intervals) stood at 2 h. For the same compound, the “lowest ethephon concentration inducing SH2A transcript accumulation” value with SH2A gene expression (2.5 hours, 0.015-150 μM tested, intercalary meristem) was found to be 1.5 µM. Besides, the SH2A transcript levels entry with SH2A gene expression (stem segments treated with 150 μM ethephon, 2.5 h, intercalary meristem and elongation zone) is on record as “strong increase”.
With `C=C1C[C@]23C[C@@]1(O)CC[C@H]2[C@@]12C=C[C@H](O)[C@@](C)(C(=O)O1)[C@H]2[C@@H]3C(=O)O` [GA3, gibberellin A3], the SH2A transcript levels entry in the assay with SH2A gene expression (incubation with 50 μM GA3, after 2.5 h, compared with controls) is on record as “did not result in increased SH2A transcript levels”.
With `C[C@@H]1C[C@@H]([C@H](O)CC2CC(=O)NC(=O)C2)C(=O)[C@@H](C)C1` [cycloheximide], the “induction of SH2A gene expression in the presence of the protein synthesis inhibitor” value with SH2A gene expression (150 μM ethephon with cycloheximide, intercalary meristem) is listed as “occurred”. Further, the “cycloheximide concentration required for SH2A gene induction” value in the assay with SH2A gene expression (dose response, 3 h, intercalary meristem) is ≥ 20 µg/mL. Moreover, the “SH2A transcripts after treatment with CHX alone” value in the assay with SH2A gene expression (stem segments, 3 h, intercalary meristem) is given as “accumulation of SH2A transcripts”.
On to `CC(C)(C)[C@@H](O)[C@@H](Cc1ccc(Cl)cc1)n1cncn1` (racemic) [paclobutrazol], for which the survival of seedlings entry in assay [1] is recorded as “greatly enhanced”.
Take `C1=CC2C=CC1C2` [norbornadiene, bicyclo[2.2.1]hepta-2,5-diene]: the SH2A transcript levels result with SH2A gene expression (ethephon in combination with norbornadiene at 50 μl/l in the gas phase) is recorded as “reduced to control levels”.
Consider `C=C` [ethylene], for which, in assay [2] (at the same time (within three hours)), the “increase of endogenous GA1 levels” value is “four-fold”. Moreover, the “reduction of endogenous ABA levels in internodes” value in assay [2] (within three hours of application of ethylene) is recorded as 75%.
